Experimental data from US20120108629A1, “New use of neferine” (Institute of Chinese Materia Medica, China Academy, priority 2009, published 2012).

Key:
[1] = system: TRPV1 mRNA; experiment: TRPV1 mRNA expression in DRG cells by real-time PCR; assay type: cell-based, rat; details: for TRPV1 mRNA expression (2^−ΔΔCT): 37° C. 24 h
[2] = system: TRPV1; experiment: Intracellular calcium change in DRG cells, Fluo-4 fluorescence (Examples 4-5, Tables 4-5); assay type: cell-based, rat
Description: (§1) Detection of intracellular calcium concentrations of DRG cells: DRG cells cultured under normal, low and high temperature conditions was obtained. The medium was discarded and the cells were washed after certain time. 0.1%F-127, 5 μM of Fluo-4-AM, M fluorescent dye were added and loaded at 25° C. out of light for 30 min. After dye loading, the redundant dye was washed out and buffer and test compounds were added respectively. The cells were put in a closed chamber on a microscope stage. Fluorescence dyed cells were detected with appropriate conditions. The change of fluorescence intensity in each cell was determined and the data were analyzed by software. The change of the intracellular calcium concentration was indicated by fluorescence intensity. The change degree of the intracellular calcium concentration was represented by the percent ratio of the change value of fluorescence intensity before and after administration and the value of fluorescence intensity before administration (Δ[Ca2+]i), i.e. Δ[Ca2+]i=(fluorescence intensity value after administration F-fluorescence intensity value before administration F0)/fluorescence intensity value before administration F0×100%. The change of the intracellular calcium concentration indicated the function of TRP.
(§2) The medium was discarded and the fluorescent dye was added and loaded for 30 min. The change of fluorescence intensity in cell was determined in a closed chamber on a microscope stage and the change of the intracellular calcium concentration was assayed.
as §2

[3] = target: TRPV1 (Rattus norvegicus, UniProt O35433); experiment: Intracellular calcium change in DRG cells, Fluo-4 fluorescence (Examples 9-11, Tables 9-11); assay type: cell-based
Description: as §1, §2, §2
(this is the appropriate stimulation time for the intracellular calcium change after stimulation under 19° C., and the experiment data was not shown). The medium was discarded and the fluorescent dye was added and loaded for 30 min.

[4] = system: TRPM8 mRNA; experiment: TRPM8 mRNA expression in DRG cells by real-time PCR; details: DRG cells
Description: DRG were aseptically removed and meticulously cleaned the rootlets and connective tissue. The tissue was digested with collagenase and trypsin in succession, and then centrifuged and the digestive liquid was discarded. Cells were prepared into single cell suspension in common culture medium, and then calculated and adjusted to 10^5 nerve cells per ml. It was incubated in culture plates pre-coated with laminin at 37° C. in 5% CO2 for 48 hours. Camptothecine was used to inhibit proliferation of other cells. Culture was continued to obtain DRG cells with a high purity (>98%).
Detection of TRPM8 and TRPV1 mRNA expression: The total RNA of the DRG neuronal cells was extracted in a routine way, after exposure to the tested agents of various concentrations under the normal, low and high temperature conditions respectively. The concentration of RNA was measured and its cDNA was prepared. The desired amount of resulting cDNA and TRPM8 or TRPV1 gene primers were added on the IQ5-Type real-time IQ5-Type real-time PCR meter with GAPDH as the endogenous control to perform extension. Melting curves were generated. Relative gene expression was calculated using the comparative threshold cycle (2-^ΔΔCT) method with the calculated formula as following:
ΔΔCt=(Ct,Target-Ct,GAPDH)x-(Ct,Target-Ct,GAPDH)Control
X represents any one of tested, Control represents double target gene expression after GAPDH correction.
The purified culture medium of DRG cells was added with three different concentrations of test compounds and cultured at 37° C. in 5% CO2 for 24 h. The total RNA was extracted immediately after culture. The TRPM8 agonist hexahydrothymol was positive control group and the normal culture medium was vehicle control group. Then the real-time PCR amplification was performed and TRPM8 mRNA was determined.
The purified culture medium of DRG cells was added with three different concentrations of test compounds and cultured at 37° C. in 5% CO2 for 23 h followed by 39° C. in 5% CO2 for 1 h. The total RNA was extracted immediately after culture. The TRPM8 agonist hexahydrothymol was positive control group and the normal culture medium was vehicle control group. Then the real-time PCR amplification was performed and TRPM8 mRNA was determined.
The purified culture medium of DRG cells was added with three different concentrations of test compounds and cultured at 37° C. in 5% CO2 for 22 h followed by 19° C. in 5% CO2 for 2 h. The total RNA was extracted immediately after culture. The TRPM8 agonist hexahydrothymol was positive control group and the normal culture medium was vehicle control group. Then the real-time PCR amplification was performed and TRPM8 mRNA was determined.

[5] = 37° C. 22 h then 19° C. 2 h, 37.5 μmol/L
[6] = 37° C. 22 h then 19° C. 2 h, 75 μmol/L
[7] = 37° C. 22 h then 19° C. 2 h, 150 μmol/L
[8] = 37° C. 23 h then 39° C. 1 h, 37.5 μmol/L
[9] = 37° C. 23 h then 39° C. 1 h, 75 μmol/L
[10] = 37° C. 23 h then 39° C. 1 h, 150 μmol/L

Sequence of TRPV1 (Rattus norvegicus, UniProt O35433) (O35433 whole entry): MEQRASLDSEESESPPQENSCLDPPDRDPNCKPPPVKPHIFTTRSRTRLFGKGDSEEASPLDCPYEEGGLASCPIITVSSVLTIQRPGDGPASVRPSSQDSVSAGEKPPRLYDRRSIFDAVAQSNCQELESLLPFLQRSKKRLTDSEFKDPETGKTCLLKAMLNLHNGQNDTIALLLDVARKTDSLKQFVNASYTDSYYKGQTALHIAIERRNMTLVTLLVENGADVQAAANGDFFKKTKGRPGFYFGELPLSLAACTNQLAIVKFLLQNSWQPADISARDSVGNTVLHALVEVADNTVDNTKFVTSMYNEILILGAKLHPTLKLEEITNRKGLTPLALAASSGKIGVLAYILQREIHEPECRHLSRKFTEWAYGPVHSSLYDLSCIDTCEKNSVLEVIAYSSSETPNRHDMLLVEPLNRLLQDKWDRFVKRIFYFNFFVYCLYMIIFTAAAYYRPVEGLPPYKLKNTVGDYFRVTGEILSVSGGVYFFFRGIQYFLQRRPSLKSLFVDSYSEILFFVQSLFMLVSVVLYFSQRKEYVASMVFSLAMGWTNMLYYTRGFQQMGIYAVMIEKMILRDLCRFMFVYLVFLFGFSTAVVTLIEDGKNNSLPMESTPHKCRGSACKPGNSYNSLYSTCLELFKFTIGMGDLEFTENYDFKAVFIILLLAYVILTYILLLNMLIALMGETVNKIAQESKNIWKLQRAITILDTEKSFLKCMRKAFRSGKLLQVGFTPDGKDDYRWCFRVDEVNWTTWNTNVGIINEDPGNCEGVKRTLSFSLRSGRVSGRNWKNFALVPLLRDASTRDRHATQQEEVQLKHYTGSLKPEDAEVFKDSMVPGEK

Compound: CC1CCC(C(C)C)C(O)C1 (stereo not drawn) [hexahydrothymol, reference compound]
- TRP V1 mRNA expression(2^−ΔΔCT) [1, 5]: 0.54 ± 0.17
- TRP V1 mRNA expression(2^−ΔΔCT) [1, 6]: 0.48 ± 0.19
- TRP V1 mRNA expression(2^−ΔΔCT) [1, 7]: 0.47 ± 0.15
- TRP V1 mRNA expression(2^−ΔΔCT) [1, 8]: 4.22 ± 0.49
- TRP V1 mRNA expression(2^−ΔΔCT) [1, 9]: 4.01 ± 0.73
- TRP V1 mRNA expression(2^−ΔΔCT) [1, 10]: 4.05 ± 0.81
- TRPV1 mRNA expression (2^−ΔΔCT) ([1]; 37.5 μmol): 0.96 ± 0.21
- TRPV1 mRNA expression (2^−ΔΔCT) ([1]; 75 μmol): 1.10 ± 0.28
- TRPV1 mRNA expression (2^−ΔΔCT) ([1]; 150 μmol): 1.08 ± 0.31
- Intracellular Calcium changes [(F1 − F0)/F0/%] ([2]; Table 4, DRG cells, 37° C. 24 h, 37.5 μmol/L): 116.52 ± 10.22%
- Intracellular Calcium changes [(F1 − F0)/F0/%] ([2]; Table 4, DRG cells, 37° C. 24 h, 75 μmol/L): 117.46 ± 13.58%
- Intracellular Calcium changes [(F1 − F0)/F0/%] ([2]; Table 4, DRG cells, 37° C. 24 h, 150 μmol/L): 120.65 ± 12.19%
- Intracellular Calcium changes [(F1 − F0)/F0/%] ([2]; Table 5, DRG cells, 37° C. 22 h then 39° C. 2 h, 37.5 μmol/L): 107.54 ± 13.09%
- Intracellular Calcium changes [(F1 − F0)/F0/%] ([2]; Table 5, DRG cells, 37° C. 22 h then 39° C. 2 h, 75 μmol/L): 108.63 ± 15.17%
- Intracellular Calcium changes [(F1 − F0)/F0/%] ([2]; Table 5, DRG cells, 37° C. 22 h then 39° C. 2 h, 150 μmol/L): 112.92 ± 13.19 %
- Intracellular Calcium changes [(F1 − F0)/F0/%] ([3]; Table 9, DRG cells, 37° C. 24 h, 37.5 μmol/L): 100.14 ± 11.26%
- Intracellular Calcium changes [(F1 − F0)/F0/%] ([3]; Table 9, DRG cells, 37° C. 24 h, 75 μmol/L): 101.82 ± 14.89%
- Intracellular Calcium changes [(F1 − F0)/F0/%] ([3]; Table 9, DRG cells, 37° C. 24 h, 150 μmol/L): 98.31 ± 12.17%
- Intracellular Calcium changes [(F1 − F0)/F0/%] ([3]; Table 10, DRG cells, 37° C. 22 h then 39° C. 2 h, 37.5 μmol/L): 133.49 ± 15.18%
- Intracellular Calcium changes [(F1 − F0)/F0/%] ([3]; Table 10, DRG cells, 37° C. 22 h then 39° C. 2 h, 75 μmol/L): 132.01 ± 14.50%
- Intracellular Calcium changes [(F1 − F0)/F0/%] ([3]; Table 10, DRG cells, 37° C. 22 h then 39° C. 2 h, 150 μmol/L): 126.08 ± 12.48%
- Intracellular Calcium changes [(F1 − F0)/F0/%] ([3]; Table 11, DRG cells, 37° C. 21 h then 19° C. 3 h, 37.5 μmol/L): 96.91 ± 11.34%
- Intracellular Calcium changes [(F1 − F0)/F0/%] ([3]; Table 11, DRG cells, 37° C. 21 h then 19° C. 3 h, 75 μmol/L): 96.75 ± 11.08%
- Intracellular Calcium changes [(F1 − F0)/F0/%] ([3]; Table 11, DRG cells, 37° C. 21 h then 19° C. 3 h, 150 μmol/L): 95.48 ± 10.23%
- TRPM8 mRNA expression (2^−ΔΔCT) [4, 5]: 3.67 ± 0.93
- TRPM8 mRNA expression (2^−ΔΔCT) [4, 6]: 3.72 ± 1.09
- TRPM8 mRNA expression (2^−ΔΔCT) [4, 7]: 4.07 ± 1.12
- TRPM8 mRNA expression (2^−ΔΔCT) [4, 8]: 0.89 ± 0.25
- TRPM8 mRNA expression (2^−ΔΔCT) [4, 9]: 0.91 ± 0.27
- TRPM8 mRNA expression (2^−ΔΔCT) [4, 10]: 0.96 ± 0.32
- TRPM8 mRNA expression (2^−ΔΔCT) ([4]; 37° C. 24 h, 37.5 μmol/L): 1.13 ± 0.22
- TRPM8 mRNA expression (2^−ΔΔCT) ([4]; 37° C. 24 h, 75 μmol/L): 1.20 ± 0.28
- TRPM8 mRNA expression (2^−ΔΔCT) ([4]; 37° C. 24 h, 150 μmol/L): 1.29 ± 0.31
